According to ChEMBL document CHEMBL5050844 (2019):

Assays:
[1] = target: E3 ubiquitin-protein ligase CBL-B (Homo sapiens, UniProt Q13191); assay: Inhibition of N-terminal Avi-tagged human CBL-B (36 to 427 residues) incubated with 60 nM Src kinase for 1.5 hrs followed by incubation with fluorescently labeled UbcH5B-Ub for 1 hr and measured by TR-FRET assay; type: single protein
[2] = Induction of anti-CD3/CD28 antibodies-stimulated human T cell activation at 1 uM assessed fold increase in IL-2 secretion measured by ELISA assay; type: functional, T cell line
[3] = Induction of anti-CD3/CD28 antibodies-stimulated human T cell activation at 0.3 uM assessed fold increase in IL-2 secretion measured by ELISA assay; type: functional, T cell line
[4] = Induction of anti-CD3 antibodies-stimulated human T cell activation at 1 uM assessed fold increase in IL-2 secretion measured by ELISA assay; type: functional, T cell line; further: reference of the scale not given here
[5] = Induction of anti-CD3/CD28 antibodies-stimulated human T cell activation at 1 uM assessed fold increase in CD25 expression measured by ELISA assay; type: functional, T cell line
[6] = Induction of anti-CD3/CD28 antibodies-stimulated human T cell activation at 0.3 uM assessed fold increase in CD25 expression measured by ELISA assay; type: functional, T cell line
[7] = Induction of anti-CD3 antibodies-stimulated human T cell activation at 1 uM assessed fold increase in CD25 expression measured by ELISA assay; type: functional, T cell line; further: reference of the scale not given here

Sequence of E3 ubiquitin-protein ligase CBL-B (Q13191 whole entry, the tested form may be a part): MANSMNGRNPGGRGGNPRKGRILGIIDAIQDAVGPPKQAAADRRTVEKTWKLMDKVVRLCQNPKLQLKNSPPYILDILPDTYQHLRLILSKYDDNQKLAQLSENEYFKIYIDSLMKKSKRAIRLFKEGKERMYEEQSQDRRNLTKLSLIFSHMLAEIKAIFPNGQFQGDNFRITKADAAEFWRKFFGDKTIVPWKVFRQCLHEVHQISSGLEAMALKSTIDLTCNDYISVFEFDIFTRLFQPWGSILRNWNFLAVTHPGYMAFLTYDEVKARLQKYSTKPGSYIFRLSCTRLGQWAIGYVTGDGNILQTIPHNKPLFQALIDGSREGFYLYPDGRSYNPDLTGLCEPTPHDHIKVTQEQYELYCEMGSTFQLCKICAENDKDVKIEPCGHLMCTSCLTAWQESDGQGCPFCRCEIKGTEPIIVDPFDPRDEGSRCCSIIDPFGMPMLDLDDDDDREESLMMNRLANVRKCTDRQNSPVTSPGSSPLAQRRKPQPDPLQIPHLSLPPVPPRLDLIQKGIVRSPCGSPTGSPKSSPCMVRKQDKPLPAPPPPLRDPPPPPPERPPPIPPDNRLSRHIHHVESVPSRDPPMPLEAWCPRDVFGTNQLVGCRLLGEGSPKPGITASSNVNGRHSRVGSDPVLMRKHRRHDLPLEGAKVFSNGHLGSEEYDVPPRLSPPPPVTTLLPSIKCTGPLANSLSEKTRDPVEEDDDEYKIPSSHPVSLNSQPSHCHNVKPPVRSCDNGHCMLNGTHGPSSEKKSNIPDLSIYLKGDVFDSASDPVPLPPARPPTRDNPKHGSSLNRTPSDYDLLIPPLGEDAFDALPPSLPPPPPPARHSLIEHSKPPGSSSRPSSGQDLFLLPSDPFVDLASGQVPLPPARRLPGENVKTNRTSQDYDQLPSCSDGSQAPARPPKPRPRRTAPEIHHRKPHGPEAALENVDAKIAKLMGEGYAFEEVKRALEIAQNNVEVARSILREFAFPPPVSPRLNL

Structure (SMILES)	IC50 [1] [nM]	fold change (FC) [2]	fold change (FC) [3]	fold change (FC) [4]	fold change (FC) [5]	fold change (FC) [6]	fold change (FC) [7]	fold change (FC) ([4]; 1 µM)	fold change (FC) ([5]; 1 µM)	fold change (FC) ([6]; 0.3 µM)	fold change (FC) ([7]; 1 µM)
Cc1cc(C(=O)Nc2cccc(C3(Cc4nncn4C)CCC3)c2)nc(C2CC2)n1	< 100	>=7.5	>=7.5	0.051	1.31	1.31	>=1.001	–	–	–	–
Cc1cc2c(c(C3CC3)n1)CN(c1cccc(C3(Cc4nncn4C)COC3)c1)C2=O	< 100	2.51	1.01	0.051	1.31	1.01	0.801	–	–	–	–
CN1CCN(c2cc3c(c(C(F)(F)F)c2)CN(c2cccc(C4(Cc5nncn5C)COC4)c2)C3=O)C(=O)C1	< 100	1.01	1.01	0.051	1.01	1.01	0.801	–	–	–	–
Cn1cnnc1[C@@H](F)C1(c2cccc(N3Cc4c(cc(CN5C6CCCC5CC6)cc4C(F)(F)F)C3=O)c2)COC1 (stereo in doubt; 671a)	< 100	5	2.51	–	–	–	–	>=0.201	>=1.76	1.51	0.601
Cn1cnnc1CC1(c2cccc(N3Cc4c(cc(N5CC6(C5)CC(F)(F)C6)cc4C(F)(F)F)C3=O)c2)COC1	< 100	>=7.5	5	0.101	1.31	1.01	>=1.001	–	–	–	–
CCN1CCN(Cc2cc3c(c(C(F)(F)F)c2)CN(c2cccc(C4(Cc5nncn5C)COC4)c2)C3=O)CC1	< 100	>=7.5	5	>=0.201	1.31	1.31	>=1.001	–	–	–	–
C[C@H](c1cc2c(c(C(F)(F)F)c1)CN(c1cccc(C3([C@H](F)c4nncn4C)COC3)c1)C2=O)N1CCC2(CC2)C1 (single isomer, unassigned)	< 100	>=7.5	>=7.5	>=0.201	>=1.76	>=1.76	>=1.001	–	–	–	–
Cn1cnnc1CC1(c2cccc(N3Cc4c(cc(CN5Cc6ccccc6C5)cc4C(F)(F)F)C3=O)c2)COC1	< 100	>=7.5	5	>=0.201	1.31	1.31	>=1.001	–	–	–	–
CN1CCN(Cc2cc3c(c(C(F)(F)F)c2)CN(c2cccc(C4(Cc5nncn5C)COC4)c2)C3=O)CC1	< 100	>=7.5	2.51	>=0.201	1.31	1.31	>=1.001	–	–	–	–
CC1C(C(F)(F)F)CCN1Cc1cc2c(c(C(F)(F)F)c1)CN(c1cccc(C3(Cc4nncn4C)COC3)c1)C2=O (stereo unspecified)	< 100	>=7.5	5	0.051	1.31	1.01	>=1.001	–	–	–	–
Cn1cnnc1CC1(c2cccc(N3Cc4c(cc(N5CCC(C(F)F)C5)cc4C(F)(F)F)C3=O)c2)COC1 (stereo unspecified)	< 100	2.51	1.01	<=0.05	1.01	1.01	0.601	–	–	–	–
Cn1cnnc1CC1(c2cccc(N3Cc4c(cc(CN5CCOCC5)cc4C(F)(F)F)C3=O)c2)COC1	< 100	>=7.5	2.51	>=0.201	1.31	1.31	>=1.001	–	–	–	–
Cn1cnnc1CC1(c2cccc(NC(=O)c3cc(CN4CC[C@H](F)C4)nc(C(F)(F)F)n3)c2)COC1	< 100	2.51	1.01	0.051	1.01	1.01	0.801	–	–	–	–
CC1CN(c2cc3c(c(C(F)(F)F)c2)CN(c2cccc(C4(Cc5nncn5C)COC4)c2)C3=O)C1C (stereo unspecified)	< 100	2.51	1.01	0.051	1.01	1.01	0.601	–	–	–	–
Cn1cnnc1CC1(c2cccc(N3Cc4c(cc(CN5CC[C@H](CO)C(F)(F)C5)cc4C(F)(F)F)C3=O)c2)COC1	< 100	>=7.5	>=7.5	0.151	1.31	1.31	>=1.001	–	–	–	–
C[C@H](c1cc2c(c(C(F)(F)F)c1)CN(c1cccc(C3(Cc4nncn4C)COC3)c1)C2=O)N1CC(C)(F)C1	< 100	>=7.5	5	>=0.201	1.51	1.51	>=1.001	–	–	–	–
Cn1cnnc1CC1(c2cccc(N3Cc4c(cc(CN5CCS(=O)(=O)CC5)cc4C(F)(F)F)C3=O)c2)COC1	< 100	2.51	2.51	0.101	1.01	1.01	>=1.001	–	–	–	–
Cc1cc2c(c(C3CC3)n1)CN(c1cccc(C3(C(F)(F)c4nncn4C)COC3)c1)C2=O	< 100	1.01	1.01	0.051	1.01	1.01	0.601	–	–	–	–
Cc1c[nH]nc1-c1cc([C@H](C)Cc2nncn2C)cc(N2Cc3c(cccc3C(F)(F)F)C2=O)n1	≤ 300	1.01	1.01	0.051	1.01	1.01	<=0.6	–	–	–	–
Cn1cnnc1CC1(c2cccc(N3Cc4c(cc(CN5CCCC5)nc4C4CC4)C3=O)c2)COC1	< 100	2.51	1.01	<=0.05	1.01	1.01	<=0.6	–	–	–	–
CN1CCC(=O)C(Cc2cc3c(c(C(F)(F)F)c2)CN(c2cccc(C4(Cc5nncn5C)COC4)c2)C3=O)C1 (stereo unspecified)	< 100	>=7.5	>=7.5	>=0.201	1.01	1.01	>=1.001	–	–	–	–
Cc1cc(C(=O)Nc2cccc(C3(Cc4nncn4C)CC(F)(F)C3)c2)nc(C2CC2)n1	< 100	>=7.5	5	>=0.201	1.01	1.01	>=1.001	–	–	–	–
Cn1cnnc1C(F)(F)[C@](C)(F)c1cccc(NC(=O)c2cc(CN3CC[C@H](F)C3)nc(C3CC3)n2)c1	< 100	5	2.51	0.051	1.01	1.01	0.801	–	–	–	–
Cn1cnnc1CC1(c2cccc(NC(=O)c3cc(CN4CC[C@H](F)C4)nc(C4CC4)n3)c2)COC1	< 100	>=7.5	>=7.5	>=0.201	1.51	1.51	>=1.001	–	–	–	–
Cn1cnnc1CC1(c2cccc(NC(=O)c3cc(CN4C[C@H]5C[C@H]5C4)cc(C4CC4)n3)c2)COC1	< 100	>=7.5	>=7.5	>=0.201	1.31	1.31	>=1.001	–	–	–	–
CN1C2CCC1CN(c1cc3c(c(C(F)(F)F)c1)CN(c1cccc([C@@](C)(F)C(F)(F)c4nncn4C)c1)C3=O)C2	< 100	2.51	1.01	0.101	1.31	1.01	0.801	–	–	–	–
Cn1cnnc1CC1(c2cccc(N3Cc4c(cc(N5CCN6CCC[C@H]6C5)cc4C(F)(F)F)C3=O)c2)COC1	< 100	>=7.5	>=7.5	>=0.201	>=1.76	>=1.76	>=1.001	–	–	–	–
Cn1cnnc1CC1(c2cccc(N3Cc4c(cc(CN5CCc6ccccc6C5)cc4C(F)(F)F)C3=O)c2)COC1	< 100	>=7.5	5	>=0.201	1.31	1.01	>=1.001	–	–	–	–
